Results: ChEMBL document CHEMBL3046848, “Synthesis and biological evaluation of novel series of thieno[2,3-d]pyrimidine derivatives as anticancer and antimicrobial agents” (2013)

What was measured:
Assay type in all cases: functional
MOLT-4 [1] = assay: Anticancer activity against Homo sapiens (human) MOLT4 cells after 48 hr by SRB assay; conditions: MOLT-4, 48 h
SN12C = assay: Growth inhibition of Homo sapiens (human) SN12C cells at 10 uM after 48 hr by SRB assay; conditions: read-out: GI
IGROV-1 = assay: Growth inhibition of Homo sapiens (human) IGROV1 cells at 10 uM after 48 hr by SRB assay; conditions: IGROV-1, 48 h, read-out: GI
A498 [2] = assay: Anticancer activity against Homo sapiens (human) A498 cells after 48 hr by SRB assay; conditions: A498, 48 h
U-251 = assay: Growth inhibition of Homo sapiens (human) U251 cells at 10 uM after 48 hr by SRB assay; conditions: U-251, 48 h, read-out: GI
TK-10 = assay: Growth inhibition of Homo sapiens (human) TK10 cells at 10 uM after 48 hr by SRB assay; conditions: TK-10, 48 h, read-out: GI
MOLT-4 [3] = assay: Growth inhibition of Homo sapiens (human) MOLT4 cells at 10 uM after 48 hr by SRB assay; conditions: MOLT-4, 48 h, read-out: GI
NCI-H460 = assay: Anticancer activity against Homo sapiens (human) NCI-H460 cells after 48 hr by SRB assay; conditions: NCI-H460, 48 h
HCT-116 = assay: Anticancer activity against Homo sapiens (human) HCT116 cells after 48 hr by SRB assay; conditions: HCT-116, 48 h
HOP-62 = assay: Anticancer activity against Homo sapiens (human) HOP62 cells after 48 hr by SRB assay; conditions: HOP-62, 48 h
A498 [4] = assay: Growth inhibition of Homo sapiens (human) A498 cells at 10 uM after 48 hr by SRB assay; conditions: A498, 48 h, read-out: GI
OVCAR-8 = assay: Growth inhibition of Homo sapiens (human) OVCAR8 cells at 10 uM after 48 hr by SRB assay; conditions: OVCAR-8, 48 h, read-out: GI
786-0 = assay: Growth inhibition of Homo sapiens (human) 786-0 cells at 10 uM after 48 hr by SRB assay; conditions: 786-0, 48 h, read-out: GI
MDA-MB-231 = assay: Growth inhibition of Homo sapiens (human) MDA-MB-231/ATCC cells at 10 uM after 48 hr by SRB assay; conditions: MDA-MB-231, 48 h, read-out: GI
SF-539 = assay: Anticancer activity against Homo sapiens (human) SF539 cells after 48 hr by SRB assay; conditions: SF-539, 48 h
SK-MEL-2 = assay: Growth inhibition of Homo sapiens (human) SK-MEL-2 cells at 10 uM after 48 hr by SRB assay; conditions: SK-MEL-2, 48 h, read-out: GI
SNB-19 = assay: Growth inhibition of Homo sapiens (human) SNB19 cells at 10 uM after 48 hr by SRB assay; conditions: SNB-19, 48 h, read-out: GI
NCI-H23 = assay: Growth inhibition of Homo sapiens (human) NCI-H23 cells at 10 uM after 48 hr by SRB assay; conditions: NCI-H23, 48 h, read-out: GI
SF-268 = assay: Anticancer activity against Homo sapiens (human) SF268 cells after 48 hr by SRB assay; conditions: SF-268, 48 h
[5] = read-out: LC50 (the source's name)

In the case of Cc1c(C(N)=O)sc2nc(C)n(/N=c3\scc(-c4ccccc4)n3Cc3ccccc3)c(=O)c12, the GI50 (MOLT-4 [1]) is reported as 24.6 µM, the TGI (MOLT-4 [1]) is reported as > 100 µM and the CC50 (MOLT-4 [1]; [5]) is reported as > 100 µM. For the same molecule, the inhibition of growth at 10 µM (SN12C) was 52.3%, the inhibition of growth at 10 µM (IGROV-1) was 89.1% and the GI50 (A498 [2]) was 2.53 µM. The TGI (A498 [2]) was 8.97 µM, the CC50 (A498 [2]; [5]) was > 100 µM and the inhibition of growth at 10 µM (U-251) was 92.2%. The inhibition of growth at 10 µM (TK-10) was 47.2%, the inhibition of growth at 10 µM (MOLT-4 [3]) was 87.9% and the GI50 (NCI-H460) was 2.65 µM. For the same molecule, the TGI (NCI-H460) was 7.34 µM, the CC50 (NCI-H460; [5]) was > 100 µM and the GI50 (HCT-116) was 2.13 µM. The TGI (HCT-116) was 10 µM, the CC50 (HCT-116; [5]) was > 100 µM and the GI50 (HOP-62) was 2.82 µM. The TGI (HOP-62) was 9.47 µM, the CC50 (HOP-62; [5]) was > 100 µM and the inhibition of growth at 10 µM (A498 [4]) was 99.3%. For the same molecule, the inhibition of growth at 10 µM (OVCAR-8) was 85.3%, the inhibition of growth at 10 µM (786-0) was 49.3% and the inhibition of growth at 10 µM (MDA-MB-231) was 57%. For the same molecule, the GI50 (SF-539) was 4.02 µM, the TGI (SF-539) was > 100 µM and the CC50 (SF-539; [5]) was > 100 µM. The inhibition of growth at 10 µM (SK-MEL-2) was 90%, the inhibition of growth at 10 µM (SNB-19) was 70.6% and the inhibition of growth at 10 µM (NCI-H23) was 79.5%. The GI50 (SF-268) was 4 µM, the TGI (SF-268) was > 100 µM and the CC50 (SF-268; [5]) was > 100 µM.
